Assay results as given in US20100016574A1, “2'-Hydroxyl Group-Modified Ribonucleoside Derivatives” (Tokyo Institute of Technology, priority 2006, published 2010).
Blank lines part the entries; values can stand above or below the molecule they belong to.

Assay: Stability / elimination of the 2′-modifying group with tetrabutylammonium fluoride (TLC analysis)
Format: physicochemical
Settings: room temperature
Experimental: To the compound (4 mg, 0.01 mmol) synthesized in Example 8 were added 1M tetrabutylammonium fluoride/THF (1 mL), and the reaction was carried out at room temperature for 6 days. […] The compound was thus stable.
To the compound (4 mg, 0.01 mmol) synthesized in Example 5 was added 1 M tetrabutylammonium fluoride/THF (1 mL) for a reaction at room temperature for 10 minutes.
To the compound (6 mg, 0.01 mmol) synthesized in Example 16 was added 1 M tetrabutylammonium fluoride/THF (1 mL), followed by a reaction at room temperature for 2 hours.

Elimination of 2-methoxycarbonyl group with tetrabutylammonium fluoride (1 M tetrabutylammonium fluoride/THF, 10 minutes): Complete conversion to uridine
Structure (SMILES): COC(=O)CCO[C@@H]1[C@H](O)[C@@H](CO)O[C@H]1n1ccc(=O)[nH]c1=O [Example 5, 2′-O-[2-(Methoxycarbonyl)ethyl]uridine]

Stability of 2-(N-methylcarbamoyl)ethyl group to tetrabutylammonium fluoride (1M tetrabutylammonium fluoride/THF, 6 days): No degradation was observed
Structure (SMILES): CNC(=O)CCO[C@@H]1[C@H](O)[C@@H](COC(c2ccccc2)(c2ccc(OC)cc2)c2ccc(OC)cc2)O[C@H]1n1ccc(=O)[nH]c1=O [Example 8, 5′-O-(4,4′-Dimethoxytrityl)-2′-O-[2-(N-methylcarbamoyl)ethyl]uridine]

Structure (SMILES): COc1ccc(C(OC[C@H]2O[C@@H](n3ccc(=O)[nH]c3=O)[C@H](OCCC(=O)N(C)C)[C@@H]2O)(c2ccccc2)c2ccc(OC)cc2)cc1 [Example 16, 5′-O-(4,4′-Dimethoxytrityl)-2′-O-[2-(N,N-dimethylcarbamoyl)ethyl]uridine]
Elimination of 2-(N,N-dimethylcarbamoylethyl) group with tetrabutylammonium fluoride (1 M tetrabutylammonium fluoride/THF, 2 hours): Complete conversion to 5′-O-dimethoxytrityl uridine
